pIC50: −log10 of the molar value.

Consider 1 molecule from patent US20250197408A1, “CRYSTALLINE FORMS AND SALTS OF A PI3K INHIBITOR AND METHODS OF MAKING AND METHODS OF USE THEREOF” (Totus Medicines Inc., priority 2022, published 2025).

The test system of one assay is NCI-H1792 (Lung). Description: Cell proliferation assay (CellTiter-Glo, 3 days treatment), NCI-H1792. It counts as cell-based. The note with it: Homo sapiens, 72 h, read-out: Absolute IC50. The source says:
(§1) The cell lines tested included as follows: UM-UC-3 (bladder), KYSE-410 (HN/Esophagus), SW1463 (rectum), Calu-1 (Lung), NCI-H358 (Lung), SW837 (Rectum), SW756 (Cervix), NCI-H2122 (Lung), NCI-H1373 (Lung), NCI-H1792 (Lung), NCI-H23 (Lung), MIA PaCa-2 (Pancreas), and HC44.
(§2) Cells were recovered and maintained in appropriate culture media. The cells were harvested respectively during the logarithmic growth period. The cells were then resuspended and counted using a Vi cell counter (The cell viability be measured by trypan blue exclusion assay.). The cells were then diluted and 90 μL cell suspensions were used in 96-well plates according to plate map with final cell density. Two duplicate plates were set up. One is for day 0 reading (TO) and the other was cultured in incubator for reading at the end point. The incubated plates were incubated overnight in humidified incubator at 37° C. with 5% CO2.
(§3) At day 0, 10 μL culture medium to each well for TO reading. 10 μL of culture medium was added to each well for TO reading. Then, 50 μl CellTiter-Glo® Reagent was added to each well. […] Luminescence was then recorded using an EnVision Multi Label Reader. […]
(§4) For the endpoint CTG reading, 50 μL of CellTiter-Glo® Reagent were added to each well. […] Luminescence was then recorded using an EnVision Multi Label Reader. IC50's were determined for each cell line.
A general note: Cellular ATP, detected with luciferase, serves as a proxy for viable cell number.

A further assay concerns NCI-H2122 (Lung). Description: Cell proliferation assay (CellTiter-Glo, 3 days treatment), NCI-H2122. It counts as cell-based. The note with it: Homo sapiens, 72 h, read-out: Absolute IC50.
Description: as §1, §2, §3, §4

For the next assay, the system named is UM-UC-3 (bladder). In words: Cell proliferation assay (CellTiter-Glo, 3 days treatment), UM-UC-3. The format is cell-based. The following applies: Homo sapiens, UMUC3, 72 h, read-out: Absolute IC50.
Description: as §1, §2, §3, §4

The next assay has as its system HC44. In words: Cell proliferation assay (CellTiter-Glo, 3 days treatment), HC44. The format is cell-based. The following applies: Homo sapiens, 72 h, HCC44 (Lung), read-out: Absolute IC50.
Description: as §1, §2, §3, §4

Another assay has as its system KYSE-410 (HN/Esophagus). In words: Cell proliferation assay (CellTiter-Glo, 3 days treatment), KYSE-410. It counts as cell-based. The following applies: Homo sapiens, 72 h, read-out: Absolute IC50.
Description: as §1, §2, §3, §4

Another assay concerns Calu-1 (Lung). In words: Cell proliferation assay (CellTiter-Glo, 3 days treatment), Calu-1. The format is cell-based. The following applies: Homo sapiens, 72 h, read-out: Absolute IC50.
Description: as §1, §2, §3, §4

The test system of another assay is SW837 (Rectum). Description: Cell proliferation assay (CellTiter-Glo, 3 days treatment), SW837. It counts as cell-based. The following applies: Homo sapiens, 72 h, read-out: Absolute IC50.
Description: as §1, §2, §3, §4

The target of another assay is T1, PI3K (Homo sapiens, UniProt P42336).
T1 construct: expressed in transfected cells; host or cells: HEK293 (Gibco 293-H, #11631017), transient transfection with FuGENE HD
Description: NanoBRET screening in transfected HEK293 cells (binding assay, with washout). The note with it: compound incubated overnight then washed. As for the experimental part:
Human embryonic kidney 293-H (HEK 293, Gibco 293-H, #11631017) cell lines were maintained in Dulbecco's Modified Eagle Medium, high glucose, pyruvate (DMEM, Gibco, #11995065) supplemented with 10% fetal bovine serum (FBS, Gibco, #10082147) and 1× penicillin-streptomycin (100× solution, Gibco, #15140148) at 37° C. and 5% CO2 in a water-saturated incubator. Cell were trypsinized using 0.05% or 0.25% Trypsin-EDTA solution (Trypsin-EDTA, phenol red, Gibco, #25200056 (0.25%) or #25300054). Opti-MEM media supplemented with 10% fetal bovine serum (Opti-MEM I reduced serum media, no phenol red, Gibco, #11058021) was used for culturing cells overnight for NanoBRET readout experiments.
HEK293 cells were cultivated appropriately prior to assay. The medium from cell flask was removed via aspiration, washed 1× with PBS followed by aspiration, trypsinized, and cells were allowed to dissociate from the flask. Trypsin was neutralized using growth medium and cells were pelleted via centrifugation at 200×g for 5 minutes. The medium was aspirated and the cells were resuspended into a single cell suspension using Opti-MEM I supplemented with 10% FBS. The cell density was adjusted to 2×10^5/mL in Opti-MEM I supplemented with 10% FBS in a sterile, conical tube. […]
A 10 μg/mL solution of DNA was prepared in Opti-MEM without serum. […] The plate on plate reader is read every hour for the next 6 hours.
In general terms: BRET reads energy transfer from a luciferase to a nearby fluorophore.

The subject of the next assay is NCI-H23 (Lung). In words: Cell proliferation assay (CellTiter-Glo, 3 days treatment), NCI-H23. The format is cell-based. The following applies: Homo sapiens, 72 h, read-out: Absolute IC50.
Description: as §1, §2, §3, §4

Another assay deals with NCI-H358 (Lung). In words: Cell proliferation assay (CellTiter-Glo, 3 days treatment), NCI-H358. It counts as cell-based.
Description: as §1, §2
At day 0, 10 μL culture medium to each well for TO reading. Then, 50 μl CellTiter-Glo® Reagent was added to each well. The contents were then mixed for 2 minutes on an orbital shaker to facilitate cell lysis. The plates were then allowed to incubate at room temperature for 10 minutes to stabilize luminescent signal. Luminescence was then recorded using an EnVision Multi Label Reader. The test compound Compound I, and a control cisplatin, where then diluted at various concentrations from a 10 mM stock solution. Compound I was diluted and 10 μL of each 10× compound I from working solutions for a concentration ranging from 10 μM to about 0.005 μM. Cisplatin was diluted to about […] to about 150 nM. The screening plates were then placed back into the incubator for the appropriate treatment time (3 days).
For the endpoint CTG reading, 50 μL of CellTiter-Glo® Reagent were added to each well. The contents were then mixed for 2 minutes on an orbital shaker to facilitate cell lysis. […] Luminescence was then recorded using an EnVision Multi Label Reader. IC50's were determined for each cell line.

For another assay, the system named is MIA PaCa-2 (Pancreas). Description: Cell proliferation assay (CellTiter-Glo, 3 days treatment), MIA PaCa-2. The format is cell-based. The note with it: Homo sapiens, 72 h, read-out: Absolute IC50.
Description: as §1, §2, §3, §4

The next assay deals with NCI-H1373 (Lung). Description: Cell proliferation assay (CellTiter-Glo, 3 days treatment), NCI-H1373. The format is cell-based. The following applies: Homo sapiens, 72 h, read-out: Absolute IC50.
Description: as §1, §2, §3, §4

A further assay relates to SW1463 (rectum). Description: Cell proliferation assay (CellTiter-Glo, 3 days treatment), SW1463. The format is cell-based. The note with it: Homo sapiens, 72 h, read-out: Absolute IC50.
Description: as §1, §2, §3, §4

For a further assay, the system named is SW756 (Cervix). In words: Cell proliferation assay (CellTiter-Glo, 3 days treatment), SW756. It counts as cell-based. The following applies: Homo sapiens, 72 h, read-out: Absolute IC50.
Description: as §1, §2, §3, §4

T1 sequence (P42336 whole entry): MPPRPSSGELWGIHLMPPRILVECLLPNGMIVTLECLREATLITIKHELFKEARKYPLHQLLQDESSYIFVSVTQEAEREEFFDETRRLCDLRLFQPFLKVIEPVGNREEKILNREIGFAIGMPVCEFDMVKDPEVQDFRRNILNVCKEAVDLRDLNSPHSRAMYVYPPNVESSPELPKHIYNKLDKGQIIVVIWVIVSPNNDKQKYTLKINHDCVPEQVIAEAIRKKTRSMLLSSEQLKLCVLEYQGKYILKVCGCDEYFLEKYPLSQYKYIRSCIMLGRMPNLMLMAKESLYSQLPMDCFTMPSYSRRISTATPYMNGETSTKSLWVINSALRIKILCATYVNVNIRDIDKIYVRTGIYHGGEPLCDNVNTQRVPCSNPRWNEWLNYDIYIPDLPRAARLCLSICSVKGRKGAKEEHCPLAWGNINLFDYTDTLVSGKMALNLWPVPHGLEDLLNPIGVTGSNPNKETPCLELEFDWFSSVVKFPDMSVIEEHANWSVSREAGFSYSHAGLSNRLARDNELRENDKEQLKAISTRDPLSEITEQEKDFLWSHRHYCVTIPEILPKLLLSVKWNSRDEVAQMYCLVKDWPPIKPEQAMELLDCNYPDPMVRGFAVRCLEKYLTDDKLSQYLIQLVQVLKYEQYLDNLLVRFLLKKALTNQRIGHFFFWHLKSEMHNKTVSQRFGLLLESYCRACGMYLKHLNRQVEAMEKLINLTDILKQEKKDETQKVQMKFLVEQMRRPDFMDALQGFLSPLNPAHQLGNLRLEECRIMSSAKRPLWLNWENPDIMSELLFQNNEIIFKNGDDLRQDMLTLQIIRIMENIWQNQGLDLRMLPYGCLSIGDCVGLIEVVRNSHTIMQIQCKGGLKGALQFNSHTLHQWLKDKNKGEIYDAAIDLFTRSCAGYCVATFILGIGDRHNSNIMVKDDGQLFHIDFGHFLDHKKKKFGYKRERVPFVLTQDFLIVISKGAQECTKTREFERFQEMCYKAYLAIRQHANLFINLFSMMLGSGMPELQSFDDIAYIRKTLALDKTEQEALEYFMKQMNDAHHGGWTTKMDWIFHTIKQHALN
T1 sequence (P27986 whole entry partner): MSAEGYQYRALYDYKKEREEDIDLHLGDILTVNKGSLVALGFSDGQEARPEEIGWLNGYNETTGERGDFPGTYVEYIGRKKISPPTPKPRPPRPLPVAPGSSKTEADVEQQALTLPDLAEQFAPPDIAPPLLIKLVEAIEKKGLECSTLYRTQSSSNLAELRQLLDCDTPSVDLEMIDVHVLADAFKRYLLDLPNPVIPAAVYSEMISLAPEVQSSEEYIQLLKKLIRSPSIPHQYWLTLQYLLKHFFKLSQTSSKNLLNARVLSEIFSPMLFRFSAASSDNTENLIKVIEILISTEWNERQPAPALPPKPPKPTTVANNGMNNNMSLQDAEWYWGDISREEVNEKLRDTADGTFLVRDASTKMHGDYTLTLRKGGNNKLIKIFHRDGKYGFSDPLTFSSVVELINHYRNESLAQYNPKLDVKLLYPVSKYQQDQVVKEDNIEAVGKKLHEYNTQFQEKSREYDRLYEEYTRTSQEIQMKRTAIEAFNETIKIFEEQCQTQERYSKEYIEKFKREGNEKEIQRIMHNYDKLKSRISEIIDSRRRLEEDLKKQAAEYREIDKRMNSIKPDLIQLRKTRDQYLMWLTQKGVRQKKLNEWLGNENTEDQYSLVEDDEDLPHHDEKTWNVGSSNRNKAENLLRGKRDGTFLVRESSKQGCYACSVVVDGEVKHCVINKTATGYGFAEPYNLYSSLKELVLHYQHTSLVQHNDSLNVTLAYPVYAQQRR

Usually pIC50 stands for −log10 of the IC50, conventionally taken in molar units. As for `C=CC(=O)NCC(=O)N1CCN(Cc2cc3c(N4CCOCC4)nc(-c4cnc(NC(=O)OC)cc4C(F)(F)F)nn3c2)CC1` [Compound I, methyl (5-(6-((4-(acryloylglycyl)piperazin-1-yl)methyl)-4-morpholinopyrrolo[2,1-f][1,2,4]triazin-2-yl)-4-(trifluoromethyl)pyridin-2-yl) carbamate], the pIC50 in the assay on NCI-H1792 (Lung) is under 5.00; in the assay on NCI-H2122 (Lung), 5.42; in the assay on UM-UC-3 (bladder), under 5.00; in the assay with HC44, 5.10; in the assay on KYSE-410 (HN/Esophagus) it was 5.69; in the assay with Calu-1 (Lung) it was under 5.00. The pIC50 with SW837 (Rectum) was under 5.00; in the assay with NCI-H23 (Lung), under 5.00; in the assay on NCI-H358 (Lung) (Homo sapiens, 72 h, NCI-H358 (Lung), 3 days treatment, read-out: Absolute IC50) it was 5.77; with MIA PaCa-2 (Pancreas), under 5.00; in the assay with NCI-H1373 (Lung), under 5.00; with SW1463 (rectum) it was 5.41. Moreover, in the assay with SW756 (Cervix), the pIC50 was 5.14. For the same molecule, the “inhibition of the PI3K target” value on PI3K is on record as “greater than 80%”. The “inhibitory effect on cell proliferation” value in the assay on NCI-H358 (Lung) (NCI-H358, 3 days treatment, CellTiter-Glo) is “substantial inhibitory effect”.
